How the values were obtained:
[1] = test system: HIV-1BAL strain infected M-MΦ; experiment: Cytopathy (MGC formation) of HIV-1 infected M-MΦ; format: cell-based, human; details: 30 μM, HIV-1BAL (FIG. 17)
Protocol: Formation of cell cluster and cell fusion was observed from the 2nd day of the incubation only in virus producing M-MΦ and formation of multinucleatic giant cells were recognized from the culture day 4–7 [refer to FIG. 2(A)]. On the other hand, in GM-MΦ without generation of virus, nomorphological changes were observed [refer to FIG. 2(B)].
M-MΦ was subjected to contact infection with HIV-1BAL strain for 2 hours, added 30 μM of EM, EM201, EM202, EM703 or CAM, incubated and observed the cell morphology.

[2] = test system: tyrosine kinase Hck protein; experiment: Expression of tyrosine kinase Hck protein in M-MΦ by Western blotting; format: cell-based, human; details: for expression of tyrosine kinase Hck protein in HIV-1 infected M-MΦ: 30 μM, compared with DMSO control (FIG. 18); for expression of tyrosine kinase Hck protein in HIV-1 infected M-MΦ / expression of tyrosine kinase Hck protein in oligonucleotide pretreated M-MΦ after infection: day 2 after HIV-1BAL infection; for expression of tyrosine kinase Hck protein in oligonucleotide treated M-MΦ before infection: probe 2 μM for 24 hours, further 24 hours incubation, compared with lipofectin control (L) (FIG. 9)
From the text: Expression of tyrosine kinase Hck protein and transcription factor C/EBPβ protein in macrophage was examined after solubilizing the macrophage in SDS-PAGE sample buffer, performing 10% SDS-polyacrylamide electrophoresis, transferring the protein on the gel to immobilon P membrane (Millipore Inc. U.S.) and checking antibodies against these proteins by Western blotting. Antibody to tyrosine kinase Hck protein (N-30) and antibody to C/EBPβ (C-19) were purchased from Santacluse Inc. (U.S.). Western blotting was detected by Amersham ELC Regent (Amersham International plc, Buckinghamshire, UK). Strength of bands was expressed by PSL (photostimulating luminescence) value (A/mm^2).
These probes were dissolved in the serum free RPMI1640 medium, in which lipofectin (Life Technology Inc., U.S.) was dissolved at 5 μM concentration, at room temperature for 30 minutes, added with RPMI1640 medium, which contains 10% FCS, to the macrophage (final concentration 2 μM) and incubated at 37° C. for 24 hours. Thereafter, cells were washed with the medium, added the RPMI1640 medium containing 10% FCS without oligonucleotide, further cultured for 24 hours, and then infected with HIV-1.
Consequently, M-MΦ was subjected to contact infection with HIV-1BAL strain for 2 hours, added 30 μM of EM, EM201, EM202, EM703 or CAM, incubated and expression of tyrosine kinase Hck protein was observed on day 2 after the infection by Western blotting.

[3] = test system: HIV-1BAL strain in GM type macrophage (GM-MΦ) derived from human monocytes; experiment: Proliferation of HIV-1 in GM-MΦ: p24 protein in culture supernatant by sandwich ELISA; format: cell-based; details: 30 μM, HIV-1BAL, all assay points up to 14 days, similar to DMSO control (FIG. 14)
Protocol: (§1) Macrophages derived from monocytes were prepared by culturing the recovered monocytes in the presence of M-CSF (macrophage colony-stimulating factor) (10^4 U/ml, provided by Morinaga Milk Co.), granulocytes and granulocyte-macrophage colony-stimulating factor, GM-CSF) (500 U/ml, provided by Japan Scheling Plough Co., Osaka, or purchased from R & S Genzyme-TECHNE Inc.) with RPMI1640 medium added with FCS10% (Nissui Seiyaku Co., Tokyo) for 7–8 days.
(§2) The macrophage prepared by differential induction of M-CSF from human monocytes is designated as M type macrophage (M type MΦ or M-MΦ) and the macrophage prepared by differential induction of GM-CSF from human monocytes is designated as GM type macrophage (GM type MΦ or GM-MΦ) Further, alveolar macrophage (alveolar MΦ or A-MΦ) was prepared as follows. Cells in the alveolar lavage liquid obtained from the alveolar lavage of healthy volunteers were recovered, suspended and adhered to plastics, then the non-adhered cells were washed out and the remained adhered cells were designated as the alveolar MΦ.
(§3) Infection of HIV-1 to macrophage was performed as follows. Macrophage directed viral strains, HIV-1JR-FL and HIV-1BAL, were infected for 2 hours in contact with M-MΦ, GM-MΦ and A-MΦ (adjusted to 2.5×10^5/well, Flacon No3043: Becton Dickinson Labware, Inc. U.S.)at low concentration (p24 antigen titer 50 ng/ml, TCID50=3000/ml virus to final concentration at 100 pg/ml), and non-adsorbed virus to the macrophage was washed out, and cultured with adding fresh medium. In case of the medium with M-MΦ, M-CSF was added (10^4 U/ml), and that of the medium with GM-MΦ, GM-CSF was added (500 U/ml).
(§4) Proliferation of virus was examined with the released viral particles in the culture supernatant after the infection by the sandwich ELISA using two types of anti-p24 antibody (Nu24 and 10B5^13). The following JAM62 and JAM65 were used as LTR (HIV long terminal repeat)-gap gene primer. The following JAM63 and JAM 64 were used as the internal primer for the nested PCR. • JAM62: • 5′-[…]-3′ (SEQ ID NO: 1) • JAM65: • 5′-[…]-3′ (SEQ ID NO: 2) • JAM63: • 5′-GTGTOACTCTGGTAACTAGAGATCC-3′ (SEQ ID NO: 3) • JAM64: • 5′-[…]-3′ (SEQ ID NO: 4) (1-4) Assay of Expression of Tyrosine Kinase Hck Protein and Transcription Factor C/EBPβ Protein
(§5) In order to show growth suppression effect of the present invention, among macrolide derivatives, EM, EM201, EM202, EM703, CAM, EM722, EM730, EM732, EM736, EM734, EM735, EM747, EM748, EM743, EM746, EM750 or EM751 was dissolved in DMSO with each 100 mM concentration, and used in dilution with the medium thereafter. A control group was M-MΦ treated only with DMSO used for dissolving macrolide derivatives.
(§6) M-MΦ and GM-M Φ were subjected to contact infection with HIV-1BAL strain for 2 hours, added 30 μM of EM, EM201, EM202, EM703, CAM,EM722, EM730, EM732, EM736, EM734, EM735, EM747, EM748, EM743, EM746, EM750 or EM751, incubated for 14 days and amount of p24 protein in the cultured supernatant was assayed in the time-dependent manner.

[4] = test system: HIV-1BAL strain in M type macrophage (M-MΦ) derived from human monocytes; experiment: Proliferation of HIV-1 in M-MΦ: p24 protein in culture supernatant by sandwich ELISA; format: cell-based; details: for suppression of viral generation (p24 in culture supernatant) in M-MΦ: 30 μM, HIV-1BAL, 14 days of culture, compared with DMSO control (FIG. 13); for viral proliferation at 300 μM in M-MΦ: also observed in DMSO control, ascribed to cytotoxicity of DMSO; for concentration dependence of suppressive action on HIV-1BAL in M-MΦ: various concentrations (FIG. 16); for p24 protein in culture supernatant of oligonucleotide pretreated M-MΦ: day 4, 7 and 10 after HIV-1BAL infection, compared with lipofectin control (L) (FIG. 10)
Protocol: as §1, §2, §3, §4, §5, §6

[5] = test system: p38MAPK; experiment: Tyrosine phosphorylation (activation) of p38MAPK in HIV-1 infected M-MΦ by Western blotting; format: cell-based, human; details: 30 μM, day 2 of culture, HIV-1BAL infected M-MΦ, compared with DMSO (FIG. 19(A))
Protocol: (§7) P38MAPK and ERK1/2 activation were determined using P38MAPK antibody, anti-ERK1/2 antibody, anti-tyrosine phosphorylation P38MAPK antibody and anti-tyrosine phosphorylation ERK1/2 antibody (New England Biolabs, Inc. U.S.), and phosphorylation reaction of these molecules was determined by Western blotting.
Thirty μM of EM, EM201, EM202, EM703 or CAM were added to M-MΦ infected with HIV-1BAL strain, tyrosine phosphorylation of p38MAPK was detected on day 2 of the culture by Western blotting. […] In any groups, total amount of p38MAPK (total sum of phosphorylated and non-phosphorylated p38MARK) was equal.

[6] = test system: ERK1/2; experiment: Tyrosine phosphorylation (activation) of ERK1/2 in HIV-1 infected M-MΦ by Western blotting; format: cell-based, human; details: 30 μM, HIV-1BAL infected M-MΦ, compared with DMSO (FIG. 19(B))
Protocol: as §7
In any groups, total amount of ERK1/2 (total sum of phosphorylated and non-phosphorylated p38MARK) was equal [refer to FIG. 19(B)].

Compound	cytopathic effect (MGC formation) in HIV-1 infected M-MΦ [1]	expression of tyrosine kinase Hck protein in HIV-1 infected M-MΦ [2]	viral generation in GM-MΦ [3]	proliferation of virus in M-MΦ at 3 μM ([4]; 3 μM)	suppression of viral generation (p24 in culture supernatant) in M-MΦ [4]	viral proliferation at 300 μM in M-MΦ [4]	concentration dependence of suppressive action on HIV-1BAL in M-MΦ [4]	tyrosine phosphorylation of p38MAPK [5]	tyrosine phosphorylation of ERK1/2 [6]	expression of tyrosine kinase Hck protein in oligonucleotide pretreated M-MΦ after infection [2]	expression of tyrosine kinase Hck protein in oligonucleotide treated M-MΦ before infection [2]	p24 protein in culture supernatant of oligonucleotide pretreated M-MΦ [4]
11-(1′-hydroxypropyl)-3-[2,6-dideoxy-3-C-methyl-α-L-ribo-hexopyranosyl]oxy]-5-[(3,4,6-trideoxy-3-(dimethylamino)-β-D-xylo-hexopyranosyl)oxy]-2,4,6,8,11,14-hexamethyl-10,13,15-tri-oxatricyclo[9.2.1.1.^9.6]-pentadecane-1-one [EM201]	no cytopathic effect such as MCG formation was observed	strongly suppressed	almost no viral generation was recognized	inhibited almost completely the proliferation of virus	almost no p24 was detected	viral proliferation at 300 μM was observed	concentration dependent manner	significantly decreased	promotion of tyrosine phosphorylation of ERK1/2 was recognized			
CC[C@H]1OC(=O)[C@H](C)[C@@H](O[C@H]2C[C@@](C)(OC)[C@@H](O)[C@H](C)O2)[C@H](C)[C@@H](O[C@@H]2O[C@H](C)C[C@H](N(C)C)[C@H]2O)[C@](C)(OC)C[C@@H](C)C(=O)[C@H](C)[C@@H](O)[C@]1(C)O [CAM, Oxacyclotetradecane-2,10-dione,4-[(2,6-dideoxy-3-O-methyl-α-L-ribo-hexopyranosyl)oxy]-14-ethyl-12,13-dihydroxy-7-methoxy-3,5,7,9,11,13-hexamethyl-6-[[3,4,6-trideoxy-3-(dimethylamino)-β-D-xylo-hexopyranosyl]oxy], reference compound]	formation of MGC was slightly recognized	the suppression of tyrosine kinase Hck protein was observed, though not so strong	almost no viral generation was recognized		approximately ½	viral proliferation at 300 μM was observed	exhibited suppression of viral production depending upon drug concentration	recognized to decrease, though not so strong	weakly recognized as same in the control group			
CC[C@H]1OC(=O)[C@H](C)[C@@H](O[C@H]2C[C@@](C)(OC)[C@@H](O)[C@H](C)O2)[C@H](C)[C@@H](O[C@@H]2O[C@H](C)C[C@H](N(C)C)[C@H]2O)[C@@]2(C)C[C@@H](C)[C@@]3(O[C@@]1(C)[C@H](O)[C@H]3C)O2 [EM202, 6,9,12-Anhydroerythromycin A]	formation of MGC was slightly recognized	the suppression of tyrosine kinase Hck protein was observed, though not so strong	almost no viral generation was recognized		suppression of viral generation was recognized, though not so strong	viral proliferation at 300 μM was observed	exhibited suppression of viral production depending upon drug concentration	recognized to decrease, though not so strong	weakly recognized as same in the control group			
Hck-NS: Phosphorothioate-modified non-sense oligonucleotide probe, 5′-CCATATTTCCCGCTCOCGTG-3′ (SEQ ID NO: 7) (CCATATTTCCCGCTCGCGTG; all phosphorothioate, sugars by position and methylation of C not given here)										no suppression of expression of tyrosine kinase Hck protein was recognized	suppression of expression of tyrosine kinase Hck protein was recognized	time-dependent increase in p24 protein was recognized
Hck-S: Phosphorothioate-modified sense oligonucleotide probe of Hck, 5′-GCCAGOATOGGGTCGATCAA-3′ (SEQ ID NO: 6)										no suppression of expression of tyrosine kinase Hck protein was recognized	suppression of expression of tyrosine kinase Hck protein was recognized	time-dependent increase in p24 protein was recognized

Source: patent US7034005B2, “Use of agent for suppressing infection and proliferation of human immunodeficiency syndrome virus” (The Kitasato Institute, priority 2002, dated 2006)
